Test results from patent publication US20260317344A1, “EGFR INHIBITORS FOR TREATING DISEASE” (BLOSSOMHILL THERAPEUTICS, INC., priority 2023, published 2026).

Columns and labels:
[1] = target: T1, pEGFR, PC-9 cells (d746-750 EGFR) (Homo sapiens, UniProt P00533, DEL746-750); test: Cellular EGFR phosphorylation assay (LANCE Ultra TR-FRET) in PC-9 cells; format: cell-based; conditions: 4 hours at 37° C., read-out: PC-9 pEGFR IC50
T1 construct: pEGFR (Tyr1068) TR-FRET
In short: (§1)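 pEGFR Tyr1068 TR-FRET readout, lysates after 4 h compound exposure (37 °C, 5% CO2); 9-dose 3-fold series. A431 only: EGF 40 ng/mL for last 10 min. IC50 from curve fit.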

[2] = target: EGFR (D746-750) (Homo sapiens, UniProt P00533, DEL746-750); test: HotSpot radiometric kinase assay, inhibition of EGFR 746-750 mutant; format: biochemical; conditions: 33P ATP, room temperature, 120 m
In short: (§2)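 Radiometric filter-binding format: ATP plus 33P-ATP ([…]) was added about 20 min after compound to kinase and substrate in HEPES pH 7.5 buffer with Mg2+, EGTA, Brij35, BSA, vanadate, DTT and 1% DMSO. After 120 min at room temperature, reactions were spotted on P81 paper and washed in phosphoric acid; IC50 values fitted.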

[3] = target: T2, pEGFR, NCI-H1975 cells (L858R/T790M EGFR) (Homo sapiens, UniProt P00533, L858R/T790M); test: Cellular EGFR phosphorylation assay (LANCE Ultra TR-FRET) in NCI-H1975 cells; format: cell-based; conditions: 4 hours at 37° C., read-out: H1975 pEGFR IC50
T2 construct: pEGFR (Tyr1068) TR-FRET
In short: as §1

[4] = target: EGFR (D770_N771insNPG) (Homo sapiens, UniProt P00533, INS770NPG); test: HotSpot radiometric kinase assay, inhibition of EGFR (D770_N771insNPG) mutant; format: biochemical; conditions: 33P ATP, room temperature, 120 m
In short: as §2

[5] = target: T3, pEGFR, A431 cells (wildtype EGFR) (Homo sapiens, UniProt P00533); test: Cellular EGFR phosphorylation assay (LANCE Ultra TR-FRET) in A431 cells; format: cell-based; conditions: 4 hours at 37° C., 40 ng/mL EGF for the final 10 minutes, read-out: A431 pEGFR IC50
T3 construct: pEGFR (Tyr1068) TR-FRET
In short: as §1

[6] = tested on: HCC827 cells; test: 5-Day CellTiter Glo (CTG) cell proliferation assay, HCC827; format: cell-based; conditions: Homo sapiens; HCC827 cells (d746-750 EGFR), 5-day CTG proliferation, 120 hours; read-out: HCC827 IC50
In short: (§3)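 Proliferation of EGFR-driven NSCLC cells was scored as CellTiter-Glo 2.0 luminescence after a 5-day (120 h) incubation with compounds in 9 doses. IC50 values came from the dose-response curves.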

[7] = tested on: BaF3 cells with engineered EGFR L858R/T790M/C797S; test: 3-Day CellTiter Glo (CTG) cell proliferation assay, BaF3 EGFR L858R/T790M/C797S; format: cell-based; conditions: Mus musculus, 3-day CTG proliferation, 72 hours
In short: (§4)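 Growth inhibition in transgene-bearing BaF3 lines was scored after three days of compound treatment by CellTiter-Glo 2.0 ATP luminescence, yielding IC50 values.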

[8] = tested on: PC-9 cells; test: 5-Day CellTiter Glo (CTG) cell proliferation assay, PC-9; format: cell-based; conditions: Homo sapiens; PC-9 cells (d746-750 EGFR), 5-day CTG proliferation, 120 hours; read-out: PC-9 IC50
In short: as §3

[9] = tested on: BaF3 cells with engineered EGFR L858R/C797S; test: 3-Day CellTiter Glo (CTG) cell proliferation assay, BaF3 EGFR L858R/C797S; format: cell-based; conditions: Mus musculus, 3-day CTG proliferation, 72 hours
In short: as §4

[10] = target: EGFR (D746-750/C797S) (Homo sapiens, UniProt P00533, C797S/DEL746-750); test: HotSpot radiometric kinase assay, inhibition of EGFR 746-750/C797S mutant; format: biochemical; conditions: 33P ATP, room temperature, 120 m
In short: as §2

[11] = tested on: BaF3 cells with engineered EGFR d746-750/T790M; test: 3-Day CellTiter Glo (CTG) cell proliferation assay, BaF3 EGFR d746-750/T790M; format: cell-based; conditions: Mus musculus; BaF3 EGFR d746-750/T790M cells, 3-day CTG proliferation, 72 hours
In short: as §4

[12] = tested on: NCI-H1975 cells; test: 5-Day CellTiter Glo (CTG) cell proliferation assay, NCI-H1975; format: cell-based; conditions: Homo sapiens; NCI-H1975 cells (L858R/T790M EGFR), 5-day CTG proliferation, 120 hours; read-out: H1975 IC50
In short: as §3

[13] = target: EGFR (L858R/T790M/C797S) (Homo sapiens, UniProt P00533, C797S/L858R/T790M); test: HotSpot radiometric kinase assay, inhibition of EGFR L858R/T790M/C797S mutant; format: biochemical; conditions: 33P ATP, room temperature, 120 m
In short: as §2

T2 sequence (P00533 25-1210 T790M/L858R): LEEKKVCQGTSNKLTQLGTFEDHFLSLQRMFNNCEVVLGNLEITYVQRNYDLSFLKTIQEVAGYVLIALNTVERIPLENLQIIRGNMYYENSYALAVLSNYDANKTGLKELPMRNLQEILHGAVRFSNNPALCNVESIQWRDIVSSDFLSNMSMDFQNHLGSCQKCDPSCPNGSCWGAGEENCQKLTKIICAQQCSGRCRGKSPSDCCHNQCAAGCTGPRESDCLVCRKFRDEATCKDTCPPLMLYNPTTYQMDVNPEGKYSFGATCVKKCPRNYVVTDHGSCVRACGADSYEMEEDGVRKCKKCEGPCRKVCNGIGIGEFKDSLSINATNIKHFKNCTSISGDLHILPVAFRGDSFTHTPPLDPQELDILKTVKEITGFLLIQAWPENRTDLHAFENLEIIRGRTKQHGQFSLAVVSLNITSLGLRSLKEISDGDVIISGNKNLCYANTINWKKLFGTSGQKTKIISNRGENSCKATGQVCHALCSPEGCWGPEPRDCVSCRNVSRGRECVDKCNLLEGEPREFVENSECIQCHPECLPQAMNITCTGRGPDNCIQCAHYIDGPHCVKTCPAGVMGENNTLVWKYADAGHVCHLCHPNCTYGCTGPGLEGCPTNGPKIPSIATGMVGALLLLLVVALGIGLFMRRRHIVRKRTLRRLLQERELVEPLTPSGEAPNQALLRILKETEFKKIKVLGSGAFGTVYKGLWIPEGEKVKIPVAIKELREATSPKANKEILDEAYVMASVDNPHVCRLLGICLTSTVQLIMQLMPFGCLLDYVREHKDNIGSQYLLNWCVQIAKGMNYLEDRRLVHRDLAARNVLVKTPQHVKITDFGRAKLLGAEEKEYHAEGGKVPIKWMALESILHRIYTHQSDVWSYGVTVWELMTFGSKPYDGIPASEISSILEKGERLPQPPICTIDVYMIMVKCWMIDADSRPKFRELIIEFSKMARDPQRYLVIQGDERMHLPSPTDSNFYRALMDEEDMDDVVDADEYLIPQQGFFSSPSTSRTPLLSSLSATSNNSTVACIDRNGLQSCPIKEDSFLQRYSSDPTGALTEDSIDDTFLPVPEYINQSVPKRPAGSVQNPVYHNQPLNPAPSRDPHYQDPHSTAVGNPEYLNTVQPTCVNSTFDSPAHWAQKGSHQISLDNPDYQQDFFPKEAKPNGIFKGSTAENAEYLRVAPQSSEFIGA
T1 sequence (P00533 with tags, fused parts or gaps DEL746-750): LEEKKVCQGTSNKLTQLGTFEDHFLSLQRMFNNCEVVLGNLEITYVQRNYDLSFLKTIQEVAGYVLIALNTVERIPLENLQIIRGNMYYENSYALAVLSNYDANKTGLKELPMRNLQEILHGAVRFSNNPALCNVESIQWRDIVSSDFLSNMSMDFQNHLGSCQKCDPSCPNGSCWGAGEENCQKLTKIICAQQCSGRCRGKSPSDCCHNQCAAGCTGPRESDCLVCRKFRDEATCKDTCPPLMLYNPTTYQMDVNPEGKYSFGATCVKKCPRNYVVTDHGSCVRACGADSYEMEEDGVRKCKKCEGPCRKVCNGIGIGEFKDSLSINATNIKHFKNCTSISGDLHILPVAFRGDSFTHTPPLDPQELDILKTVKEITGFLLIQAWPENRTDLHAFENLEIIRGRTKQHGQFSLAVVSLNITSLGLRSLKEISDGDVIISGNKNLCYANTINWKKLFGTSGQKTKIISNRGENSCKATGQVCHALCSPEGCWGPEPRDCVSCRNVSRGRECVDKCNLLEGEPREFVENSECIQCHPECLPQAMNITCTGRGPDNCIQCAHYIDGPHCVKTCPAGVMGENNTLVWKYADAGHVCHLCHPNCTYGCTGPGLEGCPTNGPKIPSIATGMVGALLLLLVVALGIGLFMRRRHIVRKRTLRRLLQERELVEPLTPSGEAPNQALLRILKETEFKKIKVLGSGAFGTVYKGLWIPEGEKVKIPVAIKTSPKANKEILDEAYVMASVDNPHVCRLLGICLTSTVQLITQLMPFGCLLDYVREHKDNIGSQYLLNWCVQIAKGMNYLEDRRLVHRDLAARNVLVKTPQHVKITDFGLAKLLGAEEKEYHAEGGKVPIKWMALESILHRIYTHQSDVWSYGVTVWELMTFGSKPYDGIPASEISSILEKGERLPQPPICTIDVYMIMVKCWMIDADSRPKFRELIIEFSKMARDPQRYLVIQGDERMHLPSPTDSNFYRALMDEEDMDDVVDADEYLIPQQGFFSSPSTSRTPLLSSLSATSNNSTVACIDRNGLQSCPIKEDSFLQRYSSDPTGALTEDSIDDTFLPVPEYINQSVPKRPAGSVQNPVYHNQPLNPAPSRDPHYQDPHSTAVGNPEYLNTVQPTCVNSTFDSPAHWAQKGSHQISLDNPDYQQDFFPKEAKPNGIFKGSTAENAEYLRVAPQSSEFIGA
Chain of EGFR (D746-750) (P00533 with tags, fused parts or gaps DEL746-750): as above
Chain of EGFR (D746-750/C797S) (P00533 with tags, fused parts or gaps DEL746-750/C797S): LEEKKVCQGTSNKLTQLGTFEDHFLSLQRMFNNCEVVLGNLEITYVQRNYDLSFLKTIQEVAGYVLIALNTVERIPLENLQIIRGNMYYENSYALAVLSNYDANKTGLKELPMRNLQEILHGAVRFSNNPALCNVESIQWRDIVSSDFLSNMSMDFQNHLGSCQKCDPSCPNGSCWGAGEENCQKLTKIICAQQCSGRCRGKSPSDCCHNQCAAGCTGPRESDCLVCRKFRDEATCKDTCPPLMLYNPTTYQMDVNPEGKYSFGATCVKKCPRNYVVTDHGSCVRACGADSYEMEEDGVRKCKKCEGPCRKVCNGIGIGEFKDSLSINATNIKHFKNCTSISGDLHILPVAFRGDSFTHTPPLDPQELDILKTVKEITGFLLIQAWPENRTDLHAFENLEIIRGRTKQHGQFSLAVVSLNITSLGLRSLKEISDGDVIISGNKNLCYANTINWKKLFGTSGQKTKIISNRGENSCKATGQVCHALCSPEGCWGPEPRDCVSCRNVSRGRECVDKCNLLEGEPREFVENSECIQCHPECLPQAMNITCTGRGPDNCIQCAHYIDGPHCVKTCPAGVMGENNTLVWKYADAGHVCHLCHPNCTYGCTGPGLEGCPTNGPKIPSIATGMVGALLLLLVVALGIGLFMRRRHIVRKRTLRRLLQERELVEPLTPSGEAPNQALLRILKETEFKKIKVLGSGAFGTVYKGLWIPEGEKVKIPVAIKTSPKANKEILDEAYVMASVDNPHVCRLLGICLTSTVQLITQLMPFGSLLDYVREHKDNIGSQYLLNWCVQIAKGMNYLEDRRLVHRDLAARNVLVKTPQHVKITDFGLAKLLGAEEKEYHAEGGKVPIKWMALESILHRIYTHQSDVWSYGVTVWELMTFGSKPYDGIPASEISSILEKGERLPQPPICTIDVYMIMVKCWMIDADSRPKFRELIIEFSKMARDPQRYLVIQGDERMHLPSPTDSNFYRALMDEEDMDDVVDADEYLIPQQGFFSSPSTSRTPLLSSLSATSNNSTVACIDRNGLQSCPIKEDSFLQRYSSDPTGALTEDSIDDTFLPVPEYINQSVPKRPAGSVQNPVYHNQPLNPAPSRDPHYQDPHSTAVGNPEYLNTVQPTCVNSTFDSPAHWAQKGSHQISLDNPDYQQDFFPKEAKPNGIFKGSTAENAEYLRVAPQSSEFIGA

SMILES	IC50 [1]	IC50 [2]	IC50 [3]	IC50 [4]	IC50 [5]	IC50 [6]	IC50 [7]	IC50 [8]	IC50 [9]	IC50 [10]	IC50 [11]	IC50 [12]	IC50 [13]
CCOc1nn(CCO)c2c1/C=C/c1n[nH]c3cnc(cc13)-c1c(C)nn(C)c1OC[C@H](C)N(C(C)C)C2 [Ex. 2, 2-[(11S,17E)-16-ethoxy-6,8,11-trimethyl-12-(propan-2-yl)-2,8,10,11,12,13-hexahydro-14H-5,3-(azenometheno)tripyrazolo[3,4-f:3′,4′-j:4″,3″-n][1,4]oxazacyclopentadecin-14-yl]ethan-1-ol]	1350 pM	220 pM	1340 pM	710 pM	9270 pM	390 pM	900 pM	1810 pM	130 pM	630 pM	710 pM	8820 pM	790 pM
CCOc1nn(CCO)c2c1/C=C/c1n[nH]c3cnc(cc13)-c1cnn(C)c1O[C@@H](C)CN(C1CC1)C2 [Ex. 30, 2-[(10S,17E)-12-cyclopropyl-16-ethoxy-8,10-dimethyl-2,8,10,11,12,13-hexahydro-14H-5,3-(azenometheno)tripyrazolo[3,4-f:3,4′-j:4″,3″-n][1,4]oxazacyclopentadecin-14-yl]ethan-1-ol]	3640 pM	150 pM	3310 pM	150 pM	14000 pM	500 pM	1020 pM	4440 pM	140 pM	490 pM	650 pM	1960 pM	190 pM
CCOc1nn(CCO)c2c1/C=C/c1n[nH]c3cnc(cc13)-c1c(C)nn(C)c1O[C@@H](C)[C@H]1CCCN1C2 [Ex. 32, 2-[(8aR,9S,19E)-1-ethoxy-9,11,13-trimethyl-7,8,8a,9,11,17-hexahydro-6H-14,16-(azenometheno)tripyrazolo[3,4-f:3′,4′-j:4″,3″-n]pyrrolo[2,1-c][1,4]oxazacyclopentadecin-3(4H)-yl]ethan-1-ol]	1080 pM	330 pM	1480 pM	630 pM	9530 pM	250 pM	870 pM	540 pM	70 pM	1090 pM	480 pM	1390 pM	770 pM
CCOc1nn(CCO)c2c1/C=C/c1n[nH]c3cnc(cc13)-c1c(C)nn(C)c1O[C@H](C)[C@H]1CCCN1C2 [Ex. 33, 2-[(8aR,9R,19E)-1-ethoxy-9,11,13-trimethyl-7,8,8a,9,11,17-hexahydro-6H-14,16-(azenometheno)tripyrazolo[3,4-f:3′,4′-j:4″,3″-n]pyrrolo[2,1-c][1,4]oxazacyclopentadecin-3(4H)-yl]ethan-1-ol]	1500 pM	150 pM	2380 pM	170 pM	17600 pM	440 pM	1600 pM	580 pM	110 pM	660 pM	1070 pM	1100 pM	310 pM
CCOc1nn([C@@H](C)CO)c2c1/C=C/c1n[nH]c3cnc(cc13)-c1c(C)nn(C)c1O[C@H](C)CN(C)C2 [Ex. 35, (2S)-2-[(10R,17E)-16-ethoxy-6,8,10,12-tetramethyl-2,8,10,11,12,13-hexahydro-14H-5,3-(azenometheno)tripyrazolo[3,4-f:3′,4′-j:4″,3″-n][1,4]oxazacyclopentadecin-14-yl]propan-1-ol]	1560 pM	220 pM	1250 pM	240 pM	15100 pM	510 pM	890 pM	2560 pM	140 pM	660 pM	460 pM	3050 pM	410 pM
CCOc1nn(CCO)c2c1/C=C/c1n[nH]c3c(C)nc(cc13)-c1cnn(C)c1O[C@H](C)CN(C)C2 [Ex. 38, 2-[(10R,17E)-16-ethoxy-8,10,12,20-tetramethyl-2,8,10,11,12,13-hexahydro-14H-5,3-(azenometheno)tripyrazolo[3,4-f:3′,4′-j:4″,3″-n][1,4]oxazacyclopentadecin-14-yl]ethan-1-ol]	18800 pM	240 pM	3110 pM	1900 pM	47500 pM	7900 pM	4010 pM	48800 pM	6500 pM	540 pM	22100 pM	27100 pM	250 pM
CCOc1nn(CCO)c2c1/C=C/c1n[nH]c3cnc(cc13)-c1c(C)nn(C)c1OC[C@H]1CCCN1C2 [Ex. 39]	2110 pM	320 pM	2180 pM	480 pM	22700 pM	630 pM	1870 pM	6570 pM	270 pM	850 pM	6080 pM	26400 pM	500 pM

Next, values leading:

IC50 [1]	IC50 [2]	IC50 [3]	IC50 [4]	IC50 [5]	IC50 [6]	IC50 [7]	IC50 [8]	IC50 [9]	IC50 [10]	IC50 [11]	IC50 [12]	IC50 [13]	SMILES
1070 pM	190 pM	3430 pM	210 pM	19300 pM	410 pM	1140 pM	510 pM	120 pM	680 pM	2990 pM	5550 pM	390 pM	Cc1nn(C)c2c1-c1cc3c(n[nH]c3cn1)/C=C/c1c(OCC#N)nn(CCO)c1CN1CCC[C@@H]1C(C)O2 (single isomer, unassigned) [Ex. 50]
1010 pM	260 pM	1920 pM	170 pM	9940 pM	290 pM	570 pM	840 pM	50 pM	620 pM	1180 pM	1050 pM	570 pM	CCOc1nn(CCO)c2c1/C=C/c1n[nH]c3cnc(cc13)-c1c(C)nn(C)c1O[C@@H](C)CN(C)C2 [Ex. 44, 2-[(10S,17E)-16-ethoxy-6,8,10,12-tetramethyl-2,8,10,11,12,13-hexahydro-14H-5,3-(azenometheno)tripyrazolo[3,4-f:3′,4′-j:4″,3″-n][1,4]oxazacyclopentadecin-14-yl]ethan-1-ol]
2150 pM	280 pM	1240 pM	690 pM	12200 pM	1120 pM	470 pM	3310 pM	120 pM	950 pM	1040 pM	1090 pM	530 pM	CCOc1nn([C@@H](C)CO)c2c1/C=C/c1n[nH]c3c(C)nc(cc13)-c1cnn(C)c1O[C@@H](C)CN(C)C2 [Ex. 45, (2S)-2-[(10S,17E)-16-ethoxy-8,10,12,20-tetramethyl-2,8,10,11,12,13-hexahydro-14H-5,3-(azenometheno)tripyrazolo[3,4-f:3′,4′-j:4″,3″-n][1,4]oxazacyclopentadecin-14-yl]propan-1-ol]
